# According to article PMC3022030 (PLoS ONE, 2011):
# Read-outs that look alike come from different tables or passages of the source.
# What was measured:
# Test in all cases: biochemical
# QacR [1] = target: T1, QacR (Staphylococcus aureus, UniProt P0A0N3, E120A)
# QacR [2] = target: T2, QacR (Staphylococcus aureus, UniProt P0A0N3, E90A)
# QacR [3] = target: T1, QacR; remark: listed apart in the source
# QacR [4] = target: T2, QacR; remark: listed apart in the source
Structure (SMILES),Kd (QacR [1]) [nM],Kd (QacR [2]) [nM],Kd (QacR [3]) [nM],Kd (QacR [4]) [nM]
Cc1cc(N)c2ccccc2[n+]1CCCCCCCCCC[n+]1c(C)cc(N)c2ccccc21 [dequalinium],2400 ± 600,1800 ± 70,–,–
CC[n+]1c(-c2ccccc2)c2cc(N)ccc2c2ccc(N)cc21 [ethidium],–,–,1250 ± 150,1030 ± 90
CN(C)c1ccc(C(=C2C=CC(=[N+](C)C)C=C2)c2ccccc2)cc1 [malachite green],–,–,980 ± 320,1490 ± 100
CCN=c1cc2oc3cc(NCC)c(C)cc3c(-c3ccccc3C(=O)OCC)c-2cc1C [rhodamine 6G],–,–,170 ± 10,210 ± 20
